For data set [1] the following is noted: clearance by NEP and NPR-C; cited from earlier work.
Another data set has as its target NPR-C (Homo sapiens, UniProt P17342). The note with it: read-out: affinity to NPR-C; cited from earlier work.
A further data set addresses NEP (Homo sapiens, UniProt P08473). The note with it: NEP digestion for 2.5 minutes in vitro; Cys6-Phe7 and Gly8-Leu9 slightly most labile.
The target of data set [2] is T1, NPR-B (Homo sapiens, UniProt P20594).
T1 sequence (P20594 23-1047): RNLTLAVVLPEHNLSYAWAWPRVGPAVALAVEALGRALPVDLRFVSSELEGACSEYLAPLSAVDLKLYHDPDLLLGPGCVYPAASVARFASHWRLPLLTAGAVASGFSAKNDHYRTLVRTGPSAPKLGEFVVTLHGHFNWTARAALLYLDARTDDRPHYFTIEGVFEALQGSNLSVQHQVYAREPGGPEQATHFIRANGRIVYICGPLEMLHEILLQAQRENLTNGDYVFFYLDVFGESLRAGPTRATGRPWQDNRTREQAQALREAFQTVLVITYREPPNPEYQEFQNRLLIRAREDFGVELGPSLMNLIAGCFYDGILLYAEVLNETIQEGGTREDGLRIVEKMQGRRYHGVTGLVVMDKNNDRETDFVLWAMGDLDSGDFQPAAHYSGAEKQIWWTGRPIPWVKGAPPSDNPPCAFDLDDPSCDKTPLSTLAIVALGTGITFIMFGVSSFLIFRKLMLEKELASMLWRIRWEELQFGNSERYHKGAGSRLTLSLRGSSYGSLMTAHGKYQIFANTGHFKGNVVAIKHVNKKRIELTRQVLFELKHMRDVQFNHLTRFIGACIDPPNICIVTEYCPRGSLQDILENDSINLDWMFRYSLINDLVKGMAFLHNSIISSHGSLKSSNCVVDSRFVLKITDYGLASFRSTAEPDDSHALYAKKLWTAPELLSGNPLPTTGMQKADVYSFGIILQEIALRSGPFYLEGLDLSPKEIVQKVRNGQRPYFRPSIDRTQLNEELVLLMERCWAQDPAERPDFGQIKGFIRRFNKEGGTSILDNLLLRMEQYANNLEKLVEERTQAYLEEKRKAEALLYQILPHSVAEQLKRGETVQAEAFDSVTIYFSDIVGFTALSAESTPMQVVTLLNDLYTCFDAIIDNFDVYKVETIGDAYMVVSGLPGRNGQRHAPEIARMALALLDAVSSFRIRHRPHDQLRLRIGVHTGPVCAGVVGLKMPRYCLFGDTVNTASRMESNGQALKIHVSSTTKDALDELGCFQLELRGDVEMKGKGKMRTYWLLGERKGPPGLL
The note with it: read-out: affinity to NPR-B; cited from earlier work.

Data set [3] deals with T1, NPR-B. The note with it: cited from earlier work.
Data set [4] relates to medial meniscal tear-induced osteoarthritis. The data set can be described thus: Rat medial meniscal tear osteoarthritis model, knee histopathology (Example 2, IA or SC). Format: in vivo.
Data set [5] shares this test system. In words: Gait analysis in rat meniscal tear osteoarthritis model (Example 1). Format: in vivo. From the text: (§1) This rat model was used to determine the effect of CNP variants on slowing or repairing cartilage damage in osteoarthritis, where the CNP is delivered in response to joint injury or trauma. In this model a tear was introduced into the meniscus to provoke joint injury which results in cartilage degeneration and osteoarthritis (Janusz et al., Osteoarthritis Cartilage, 10:785-791, 2002). Male Lewis rats received a unilateral medial meniscectomy on Day 0; administration of control vehicle or the CNP variant Gly-CNP-37 began on Day 7; and the animals were euthanized on Day 29 for histopathological analysis of the affected joints. […] Therapeutic efficacy was evaluated by gait analysis and histopathological examination of chondrocyte death/cartilage degeneration in the knee.
Gait analysis was performed by applying ink to the ventral surface of the foot and documenting weight bearing during movement (footprints) across paper. Rear feet of rats were placed in ink and then rats were placed on paper and allowed to walk the full length. Gait was scored visually using the criteria in Table 5 (descriptions refer to diseased/affected leg).

Data set [6] has the same test system. The data set can be described thus: Rat medial meniscal tear osteoarthritis model, knee histopathology (Example 1, IA dosing from Day 7). Format: in vivo. The note with it: for cartilage degeneration in the tibia: 3x/week for 3 weeks from Day 7, vs control rats. The procedure: A unilateral medial meniscal tear in 275-300 gram rats will result in rapidly progressive cartilage degeneration—characterized by chondrocyte and proteoglycan loss, fibrillation, osteophyte formation, and chondrocyte cloning. This model is performed by transection of the medial collateral ligament just below its attachment to the meniscus so that when the joint space opens, the meniscus is reflected toward the femur. The meniscus is cut at its narrowest point (away from the ossicles) taking care not to damage the tibial surface and making sure that the resulting transection produces separate, freely movable anterior and posterior meniscus halves.
Progressive cartilage degenerative changes occur and by 3-6 weeks post-surgery, tibial cartilage degeneration may be focally severe on the outer ⅓ of the tibia with degenerative changes of lesser severity in the middle and inner ⅓. Osteophytes are ultimately quite large (medial tibia) and progressively increase in size. The model is progressive and results in total cartilage loss (to eburnated bone) in […] in virtually all rats, with lesions that are reasonably consistent. […] Due to the rapid progression of cartilage degeneration, protective effects are not always apparent in the outer ⅓ of the tibial cartilage, although zonal analysis may reveal effects of treatment in the middle and inner ⅓. Substantial subchondral and epiphyseal bone changes occur in the medial tibia subjacent to the areas of greatest lesion severity. These range in magnitude and type from increased basophilia of the calcified cartilage layer with small fractures into subchondral bone to overt collapse of articular cartilage into areas of bone resorption in the epiphysis with surrounding sclerosis of bone. Therefore, this model offers the opportunity to evaluate not only chondroprotective effects of agents but also bone preserving activities. The model is of relatively short duration and animals are very consistent in their response to the surgery.
as §1
In particular, surgery animals were anesthetized with isoflurane and the right knee and lower leg area were prepared for surgery. For the meniscal tear, a skin incision was made over the medial aspect of the knee and the medial collateral ligament was transected after being exposed by blunt dissection. The medial meniscus was cut through the full thickness to simulate a complete tear and the wound closed. Ninety minutes (90 min) post-surgery, animals were treated with a dose of Acetaminophen (100 mg/kg, PO) in 1% CMC (2 mL/kg, 50 mg/mL). A follow-on dose was given 24 hours post-surgery (as needed).
For histopathological analysis the operated joints were harvested from the euthanized rats. Following 4-6 days in 5% formic acid decalcifier, the operated joints are cut into two approximately equal halves in the frontal plane and embedded in paraffin. Sections were cut from each operated right knee at approximately 160 μm steps and stained with toluidine blue. […]

This is an account of results in patent publication US12214015B2, “Use of c-type natriuretic peptide variants to treat osteoarthritis” (priority 2015, dated 2025).

Where no end group is shown, it is not given here.

Sequence of NEP (P08473 whole entry): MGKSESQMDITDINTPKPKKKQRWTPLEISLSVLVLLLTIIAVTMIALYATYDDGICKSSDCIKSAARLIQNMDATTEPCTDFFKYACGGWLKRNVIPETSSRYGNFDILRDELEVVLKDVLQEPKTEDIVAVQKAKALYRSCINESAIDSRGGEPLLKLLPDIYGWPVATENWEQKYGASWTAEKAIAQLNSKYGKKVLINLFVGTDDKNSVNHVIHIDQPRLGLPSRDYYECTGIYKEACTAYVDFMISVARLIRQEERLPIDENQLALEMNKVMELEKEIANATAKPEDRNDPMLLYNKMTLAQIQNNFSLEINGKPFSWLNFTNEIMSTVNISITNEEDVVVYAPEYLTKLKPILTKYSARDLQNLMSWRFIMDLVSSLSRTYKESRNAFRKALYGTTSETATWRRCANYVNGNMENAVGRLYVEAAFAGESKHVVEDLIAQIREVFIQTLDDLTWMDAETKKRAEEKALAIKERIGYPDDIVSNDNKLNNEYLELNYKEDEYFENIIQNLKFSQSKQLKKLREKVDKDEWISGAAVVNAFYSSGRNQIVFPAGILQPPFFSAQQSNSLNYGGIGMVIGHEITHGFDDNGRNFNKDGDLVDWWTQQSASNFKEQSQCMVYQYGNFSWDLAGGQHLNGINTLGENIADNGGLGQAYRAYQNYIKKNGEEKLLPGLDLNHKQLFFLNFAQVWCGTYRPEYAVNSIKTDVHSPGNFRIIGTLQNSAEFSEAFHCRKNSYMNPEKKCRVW
Sequence of NPR-C (P17342 27-541, species assumed): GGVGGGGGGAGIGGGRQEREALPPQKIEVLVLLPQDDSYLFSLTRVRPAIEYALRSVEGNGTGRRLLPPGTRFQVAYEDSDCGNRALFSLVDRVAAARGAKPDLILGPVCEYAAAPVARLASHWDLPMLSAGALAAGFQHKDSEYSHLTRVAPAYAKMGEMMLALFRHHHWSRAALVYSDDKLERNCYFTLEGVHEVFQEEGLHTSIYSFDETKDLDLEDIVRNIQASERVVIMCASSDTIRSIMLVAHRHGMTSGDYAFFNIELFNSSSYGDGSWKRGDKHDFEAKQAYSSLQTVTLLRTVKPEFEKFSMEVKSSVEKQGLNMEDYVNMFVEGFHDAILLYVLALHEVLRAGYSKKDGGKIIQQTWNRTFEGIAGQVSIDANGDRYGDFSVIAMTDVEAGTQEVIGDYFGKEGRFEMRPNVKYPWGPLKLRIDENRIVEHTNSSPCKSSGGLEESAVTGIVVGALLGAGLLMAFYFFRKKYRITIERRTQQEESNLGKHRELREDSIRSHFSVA

As usually defined, the half-life is the time in which the quantity being followed falls by half. Consider `CC[C@H](C)[C@@H]1NC(=O)[C@H](CCCNC(=N)N)NC(=O)[C@H](CC(=O)O)NC(=O)[C@H](CC(C)C)NC(=O)[C@H](CCCCN)NC(=O)[C@H](CC(C)C)NC(=O)CNC(=O)[C@H](Cc2ccccc2)NC(=O)[C@@H](NC(=O)CNC(=O)[C@H](CCCCN)NC(=O)[C@H](CO)NC(=O)[C@H](CC(C)C)NC(=O)CN)CSSC[C@@H](C(=O)O)NC(=O)CNC(=O)[C@H](CC(C)C)NC(=O)CNC(=O)[C@H](CO)NC(=O)[C@H](CCSC)NC(=O)[C@H](CO)NC(=O)CNC1=O` [CNP-22], for which, in data set [1], the half-life was around 2.6 min. The Kd on NPR-C was 0.011 to 0.14 nM; on NPR-B [2], 0.007 to 0.03 nM. Further, on NEP, the “hydrolysis of NEP cleavage sites” value is listed as “all possible sites were unexpectedly hydrolyzed”.

For the molecule “G19R mutation in CNP22: CNP22 with a G19R substitution (GLSKGCFGLKLDRIGSMSRLGC; ends and bridges not checked; cysteine pairing not given here; UniProt P23582 105-126, looked up, variant G19R)”, in the data set with NPR-B [3], the NPR-B signaling activity result was “does not result in a significant loss”.

Consider “GQEHPNARKYKGANKKGLSKGCFGLKLDRIGSMSGLGC (ends and bridges not checked; cysteine pairing not given here) [Gly-CNP-37]”, for which the “Total Joint Score without Femur” value was “significant reduction” in data set [4] (105 μg IA); “improved Total Joint Score without Femur, albeit to a lesser extent as compared to the higher dose” in data set [6] (35.5 μg/dose IA); “significantly reduced” in data set [6] (110 μg/dose IA). Besides, the “effects on histopathology lesions of medial meniscal tear-induced osteoarthritis” value in data set [4] (IA, Pro-Gly-CNP-37 35.5 and 105 μg, Gly-CNP-37 105 μg) is listed as “significant beneficial effects”. Also, the “gait score Area Under the Curve (AUC)” value was “gait score being lower for both treated populations as compared to the untreated controls” in data set [5] (higher dose IA) and “decreased gait score to a greater extent than the higher CNP dose” in data set [5] (lower dose IA). Further, the “mobility and gait (gait score)” value in data set [5] (higher or lower dose IA, approximately day 15 to day 28) is “improvement in mobility and gait”. In addition, the “medial growth plate thickness” value in data set [6] (35.5 μg IA) was “a reduction in medial thickness, but not a significant reduction”; in data set [6] (110 μg IA), “significantly reduced”. The “damage to the calcified cartilage and subchondral bone” value in data set [6] (35.5 μg/dose IA) is “reduced damage to the calcified cartilage and subchondral bone, but to a lesser extent than the higher dose”. In addition, the “cartilage degeneration in the tibia” value in data set [6] (35.5 μg/dose IA) and in data set [6] (110 μg/dose IA) was “significant reduction” in each case. Further, in data set [6] (110 μg/dose IA, p<0.05), the “reduction of tibial osteophyte measurement” value is “approximately 24%”. In addition, the “reduction of tibial osteophyte score” value in data set [6] (110 μg/dose IA, p<0.05) is on record as “approximately 34%”. Besides, in data set [6] (110 μg/dose IA, vehicle approximately 2.4), the “damage to the calcified cartilage and subchondral bone, score” value is recorded as around 1.3. For the same molecule, the “improvement in substantial tibial cartilage degeneration (width)” value in data set [6] (Gly-CNP-37 treated animals (IA)) is on record as “greater than 50%”. Also, the “depth ratio (lesion depth / total depth), medial tibia” value in data set [6] (Gly-CNP-37 treated groups (IA) vs vehicle) was “improved”. In data set [6] (both doses IA), the “Total Joint Score with Femur” value was “decreases total joint score at both doses, but not to a significant level”. The “medial tibial subchondral/epiphyseal trabecular bone thickening/sclerosis” value in data set [6] (both doses IA vs vehicle, not significant) was “observable decrease”. In addition, the “growth plate thickness, medial minus lateral difference” value in data set [6] (higher dose IA) was “significantly reduced”; in data set [6] (lower dose IA) it was “reduced thickness of the growth plate, but not to the same extent as the higher dose”. Also, in data set [6] (lower and higher doses IA vs untreated controls), the “collagen damage across the medial tibial plateau” value is “fewer areas with severe, marked and moderate degeneration”. Also, in data set [6] (treated groups (IA) vs vehicle), the “width of the cartilage affected by any degeneration” value was “improved”.
